The target in one experiment is PI3Kα (Homo sapiens (Human), UniProt P42336). The experiment is described as follows: Inhibition of PI3Kα efficacy assay (ADP-Glo kinase assay). It counts as biochemical. The note with it: read-out: PI3Kα inhibitory activity (IC50). The protocol:
Inhibition of PI3Kα Efficacy assay The ADP-Glo™ kinase assay was used to assess the inhibition of PI3Kα with our compounds. The utilized proteins and assay reagents were obtained from the ADP-Glo™ Kinase Assay Kit (Promega). Initially, a 2 mM stock solution of the test compound (dissolved in DMSO) was serially diluted in five-fold concentrations using DMSO to obtain eight working solutions 1 (200′). […] Subsequently, 2 μL of 2.5×PI and ATP solution mixture were added to each well, mixed, and incubated at RT for 60 minutes. Then, 5 μL of ADP-Glo (containing 10 mM MgCl2) reagent was added to each well, mixed, and incubated at RT for 40 minutes. Finally, 10 μL of the Kinase Detection Reagent was added to each well, mixed, and incubated at RT for 40 minutes. […] Data were analyzed using GraphPad Prism with log(inhibitor) vs. response—Variable Slope(four parameters) fitting calculations for […]. (Note: The negative control refers to the group without inhibitor, and the blank control refers to the group without enzyme.) The data were presented in Tables 1 to 4.

In experiment [1] the test system is NCI-H358 cells (KRAS G12C mutant). Put plainly: NCI-H358 cell proliferation inhibition (CellTiter-Glo). It counts as cell-based. Particulars: Homo sapiens, NCI-H358, 72 h. As to the method: The CellTiter-Glo®, assay was used to detect the number of viable cells, in order to evaluate the anti-proliferation efficacy of compounds. […] The compounds were serially diluted 5-fold in DMSO to obtain 8 concentrations, and then further diluted with RPMI-640 (10% FBS) cell culture medium to obtain the working solutions (5′), 20 μL of each working solution was added to the cell culture supernatant in each well, and the plate was further incubated for 3 days at 37° C. with 5% CO2. The plate was then equilibrated with CellTiter-Glo® reagent at room temperature (25° C.) for 10-30 minutes. After aspirating 50 μL of the medium, 50 μL of CellTiter-Glo® reagent was added. The cells were thoroughly mixed with the CellTiter-Glo® reagent using a microplate shaker for 2 minutes, and then incubated at room temperature for 10 minutes. The 96-well plate was placed in a multi-mode microplate reader to record the luminescence values (RLU). The inhibition rate was calculated through the following equation: [formula] Data were analyzed using GraphPad Prism for IC50 values (Note: The negative control refers to the group without inhibitor).

The mark [2] stands for this setting: H358 cells (G12C mutation), 3 days, Table 6, read-out: NCI-H358 (IC50).

Where two headings read alike, the source gives them in different places.

The values below come from patent US20250145589A1, “PYRIDINE DERIVATIVE AND USE THEREOF” (SICHUAN HUIYU PHARMACEUTICAL CO., LTD., priority 2021, published 2025).

Chain of PI3Kα (P42336 whole entry): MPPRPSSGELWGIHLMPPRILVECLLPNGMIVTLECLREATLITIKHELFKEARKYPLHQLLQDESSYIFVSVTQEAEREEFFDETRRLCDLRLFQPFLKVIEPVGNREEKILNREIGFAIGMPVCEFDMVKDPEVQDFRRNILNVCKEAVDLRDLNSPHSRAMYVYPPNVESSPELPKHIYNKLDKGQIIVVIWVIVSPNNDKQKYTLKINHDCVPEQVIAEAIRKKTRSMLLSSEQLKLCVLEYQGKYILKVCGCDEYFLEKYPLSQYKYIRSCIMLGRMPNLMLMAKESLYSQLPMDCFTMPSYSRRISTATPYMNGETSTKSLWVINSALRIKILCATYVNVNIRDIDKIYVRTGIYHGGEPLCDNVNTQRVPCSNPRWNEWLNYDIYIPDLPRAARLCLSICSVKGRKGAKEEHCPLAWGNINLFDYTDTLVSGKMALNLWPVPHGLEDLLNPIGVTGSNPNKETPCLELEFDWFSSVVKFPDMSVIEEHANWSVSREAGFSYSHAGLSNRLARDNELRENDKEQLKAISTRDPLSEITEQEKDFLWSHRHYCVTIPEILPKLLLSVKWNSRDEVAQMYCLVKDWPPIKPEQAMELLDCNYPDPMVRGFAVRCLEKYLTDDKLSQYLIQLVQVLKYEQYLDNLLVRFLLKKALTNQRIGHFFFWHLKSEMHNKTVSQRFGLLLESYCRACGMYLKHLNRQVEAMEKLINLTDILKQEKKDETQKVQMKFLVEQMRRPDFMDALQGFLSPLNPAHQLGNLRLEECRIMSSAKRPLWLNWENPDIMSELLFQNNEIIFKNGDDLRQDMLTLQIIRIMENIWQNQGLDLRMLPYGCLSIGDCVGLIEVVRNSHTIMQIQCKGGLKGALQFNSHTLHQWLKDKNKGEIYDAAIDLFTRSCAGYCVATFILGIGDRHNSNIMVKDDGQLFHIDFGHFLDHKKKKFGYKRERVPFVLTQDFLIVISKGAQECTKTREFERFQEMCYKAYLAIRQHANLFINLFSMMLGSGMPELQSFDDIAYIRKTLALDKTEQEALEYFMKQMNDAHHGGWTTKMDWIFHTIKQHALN
Chain of PI3Kα (P27986 whole entry partner): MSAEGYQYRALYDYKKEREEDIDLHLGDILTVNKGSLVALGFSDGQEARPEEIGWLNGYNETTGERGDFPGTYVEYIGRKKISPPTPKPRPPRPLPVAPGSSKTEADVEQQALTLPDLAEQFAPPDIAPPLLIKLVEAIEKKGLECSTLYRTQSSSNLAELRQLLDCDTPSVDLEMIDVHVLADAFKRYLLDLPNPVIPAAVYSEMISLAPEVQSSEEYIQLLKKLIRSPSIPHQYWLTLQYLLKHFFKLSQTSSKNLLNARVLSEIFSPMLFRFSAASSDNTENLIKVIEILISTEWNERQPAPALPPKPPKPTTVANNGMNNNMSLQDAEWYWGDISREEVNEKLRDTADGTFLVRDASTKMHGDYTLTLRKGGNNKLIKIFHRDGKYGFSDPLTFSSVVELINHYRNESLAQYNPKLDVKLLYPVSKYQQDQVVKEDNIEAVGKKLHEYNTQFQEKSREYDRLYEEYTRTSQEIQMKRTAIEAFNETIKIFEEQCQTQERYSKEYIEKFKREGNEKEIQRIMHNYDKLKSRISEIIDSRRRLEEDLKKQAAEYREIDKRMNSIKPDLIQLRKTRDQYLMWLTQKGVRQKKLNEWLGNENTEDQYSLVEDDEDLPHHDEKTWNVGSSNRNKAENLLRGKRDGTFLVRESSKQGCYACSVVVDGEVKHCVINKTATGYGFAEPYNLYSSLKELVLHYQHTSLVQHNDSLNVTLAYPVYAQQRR

As for `CC(=O)/C=C/C(=O)N1CC2(CCN(c3ncnc4ccc(-c5cnc(Cl)c(NS(=O)(=O)c6c(F)cccc6F)c5)cc34)CC2)C1` [Example 87, (E)-N-(2-chloro-5-(4-(2-(4-oxopent-2-enoyl)-2,7-diazaspiro[3.5]nonan-7-yl)quinazolin-6-yl)pyridin-3-yl)-2,6-difluorobenzenesulfonamide], the values for the IC50 (on PI3Kα (Table 2); in experiment [1] (setting [2])) were 2.4 nM and 131 nM, respectively.

With `C=C(F)C(=O)N1C2CCC1CN(c1ncnc3ccc(-c4cnc(OC)c(NS(=O)(=O)c5ccc(F)cc5F)c4)cc13)C2` [Example 146, 2,4-difluoro-N-(5-(4-(8-(2-fluoroacryloyl)-3,8-diazabicyclo[3.2.1]octan-3-yl)quinazolin-6-yl)-2-methoxypyridin-3-yl)benzenesulfonamide], the IC50 on PI3Kα (Table 4) is 2.1 nM; in experiment [1] (setting [2]) it was 82.1 nM.

For the compound `COc1ncc(-c2ccc3ncnc(N4CC5(CN(C(=O)/C=C/C(C)=O)C5)C4)c3c2)cc1NS(=O)(=O)c1ccc(F)cc1F` [Example 141], the 50% inhibitory concentration (IC50) is 0.3 nM at PI3Kα (Table 4) and 80.6 nM in experiment [1] (setting [2]).

Consider `CC(=O)/C=C/C(=O)N1CCN(c2ncnc3ccc(-c4cnc(OC5CC5)c(NS(=O)(=O)c5ccc(F)cc5F)c4)cc23)CC1` [Example 110, (E)-N-(2-cyclopropoxy-5-(4-(4-(4-oxopent-2-enoyl)piperazin-1-yl)quinazolin-6-yl)pyridin-3-yl)-2,4-difluorobenzenesulfonamide], for which the IC50 on PI3Kα (Table 2) was found to be 3.5 nM; in experiment [1] (setting [2]), 155 nM.

As for `COc1ncc(-c2ccc3ncnc(N4CCN(C(=O)/C=C/C(C)=O)CC4)c3c2)cc1NS(=O)(=O)Nc1ccc(F)cc1F` [Example 128, N-(2,4-difluorophenyl)[(2-methoxy-5-(4-(4-[(2E)-4-oxopent-2-enoyl]piperazin-1-yl)quinazolin-6-yl)pyridin-3-yl)amino]sulfonamide], the half-inhibitory concentration (IC50) is 21.7 nM at PI3Kα (Table 2) and 278 nM in experiment [1] (setting [2]).

Regarding `COc1ncc(-c2ccc3ncnc(N4CCC5(CN(C(=O)/C=C/n6ccnn6)C5)C4)c3c2)cc1NS(=O)(=O)c1ccc(F)cc1F` [Example 61, (E)-N-(5-(4-(2-(3-(1H-1,2,3-triazol-1-yl)acryloyl)-2,6-diazaspiro [3.4]octan-6-yl)quinazolin-6-yl)-2-methoxy-pyridin-3-yl)-2,4-difluoro-benzene-sulfonamide], the concentration for half-maximal inhibition (IC50) is 5.2 nM at PI3Kα (Table 2) and 292 nM in experiment [1] (setting [2]).

Take `C=C(F)C(=O)N1CC2(CCN(c3ncnc4ccc(-c5cnc(OC)c(NS(=O)(=O)c6c(F)cc(F)cc6F)c5)cc34)CC2)C1` [Example 140, 2,4,6-trifluoro-N-(5-(4-(2-(2-fluoroacryloyl)-2,7-diazaspiro[3.5]nonan-7-yl)quinazoline-6-yl)-2-methoxypyridin-3-yl)benzenesulfonamide]: the IC50 was determined as 0.43 nM on PI3Kα (Table 4) and 7.3 nM in experiment [1] (setting [2]).

Turning to `COC(=O)/C=C/C(=O)N1CCN(c2ncnc3ccc(-c4cnc(OC)c(NS(=O)(=O)c5ccc(F)cc5F)c4)cc23)CC1` [Example 67, methyl (E)-4-(4-(6-(5-((2,4-difluorophenyl)sulfonamido)-6-methoxy-pyridin-3-yl)quinazolin-4-yl)piperazin-1-yl)-4-oxobut-2-enoate], the IC50 was found to be 9.8 nM at PI3Kα (Table 2) and 24.2 nM in experiment [1] (setting [2]).

Regarding `COc1ncc(-c2ccc3ncnc(N4CC5CCC(C4)N5C(=O)/C=C/C(C)=O)c3c2)cc1NS(=O)(=O)c1ccccc1F` [Example 151, 2-fluoro-N-(2-methoxy-5-(4-(8-((E)-4-oxopent-2-enoyl)-3,8-diazabicyclo[3.2.1]octan-3-yl)quinazolin-6-yl)pyridin-3-yl)benzenesulfonamide], the IC50 at PI3Kα (Table 4) came to 5.9 nM; in experiment [1] (setting [2]) it was 80.3 nM.

`C=CC(=O)N1CCN(c2ncnc3ccc(-c4cnc(OC)c(NS(=O)(=O)c5c(F)cc(F)cc5F)c4)cc23)CC1` [Example 100, N-(5-(4-(4-acryloylpiperazin-1-yl)quinazolin-6-yl)-2-methoxypyridin-3-yl)-2,4,6-trifluorobenzenesulfonamide]: the concentration for half-maximal inhibition (IC50) stood at 0.54 nM on PI3Kα (Table 2) and 155 nM in experiment [1] (setting [2]).

In the case of `COc1ccc(-c2ccc3ncnc(N4CCN(C(=O)/C=C/C(C)=O)CC4)c3c2)cc1NS(=O)(=O)c1ccc(F)cc1F` [Example 95, (E)-2,4-difluoro-N-(2-methoxy-5-(4-(4-(4-oxopent-2-enoyl)piperazin-1-yl)quinazolin-6-yl)phenyl)benzenesulfonamide], the IC50 came to 414 nM at PI3Kα (Table 2) and 576 nM in experiment [1] (setting [2]).

In the case of `C=C(C(=O)N1CCN(c2ncnc3ccc(-c4cnc(OC)c(NS(=O)(=O)c5ccc(F)cc5F)c4)cc23)CC1)C(C)C` [Example 63, 2,4-difluoro-N-(2-methoxy-5-(4-(4-(3-methyl-2-methylene-butanoyl)piperazin-1-yl)quinazolin-6-yl)pyridin-3-yl) benzene-sulfonamide], the concentration for half-maximal inhibition (IC50) amounted to 6.2 nM on PI3Kα (Table 2) and 19.6 nM in experiment [1] (setting [2]).

For `C=C(F)C(=O)N1CCN(c2ncnc3ccc(-c4cnc(Cl)c(NS(=O)(=O)c5c(F)cccc5F)c4)cc23)CC1` [Example 85, N-(2-chloro-5-(4-(4-(2-fluoroacryloyl)piperazin-1-yl)quinazolin-6-yl)pyridin-3-yl)-2,6-difluorobenzenesulfonamide], the values for the IC50 (on PI3Kα (Table 2); in experiment [1] (setting [2])) were 2.8 nM and 213 nM, respectively.

For `COc1ncc(-c2ccc3ncnc(N4CCN(C(=O)/C(F)=C/C(C)=O)CC4)c3c2)cc1NS(=O)(=O)c1ccc(F)cc1F` [Example 77, (Z)-2,4-difluoro-N-(5-(4-(4-(2-fluoro-4-oxopent-2-enoyl)piperazin-1-yl)quinazolin-6-yl)-2-methoxypyridin-3-yl)benzenesulfonamide], the IC50 was 3.9 nM at PI3Kα (Table 2) and 221 nM in experiment [1] (read-out: NCI-H358 (IC50, nM)).

`COc1ncc(-c2ccc3ncnc(N4CCN(C(=O)C5=CC(=O)CCC5)CC4)c3c2)cc1NS(=O)(=O)c1c(F)cccc1F` [Example 54, 2,6-difluoro-N-(2-methoxy-5-(4-(4-(3-oxocyclohex-1-ene-1-carbonyl)piperazin-1-yl)quinazolin-6-yl)pyridin-3-yl) benzenesulfonamide]: the half-inhibitory concentration (IC50) at PI3Kα (Table 2) came out at 2.5 nM; in experiment [1] (setting [2]), 10.4 nM.

Take `C=CC(=O)N1CCC(Nc2ncnc3ccc(-c4cnc(OC)c(NS(=O)(=O)c5ccc(F)cc5F)c4)cc23)C1` (centres unmarked) [Example 147, N-(5-(4-((1-acryloylpyrrolidin-3-yl)amino)quinazolin-6-yl)-2-methoxypyridin-3-yl)-2,4-difluorobenzenesulfonamide]: the values for the half-inhibitory concentration (IC50) (on PI3Kα (Table 4); in experiment [1] (setting [2])) were 1.6 nM and 790 nM, respectively.

Take `COc1ncc(-c2ccc3ncnc(N4CC5CCC(C4)N5C(=O)/C=C/C(C)=O)c3c2)cc1NS(=O)(=O)c1c(F)cncc1F` [Example 162, 3,5-difluoro-N-(2-methoxy-5-(4-(8-((E)-4-oxopent-2-enoyl)-3,8-diazabicyclo[3.2.1]octan-3-yl)quinazolin-6-yl)pyridin-3-yl)pyridine-4-sulfonamide]: the IC50 stood at 2.4 nM on PI3Kα (Table 4) and 141 nM in experiment [1] (setting [2]).

As for `C=CC(=O)N1C[C@H](C)N(c2ncnc3ccc(-c4cnc(OC)c(NS(=O)(=O)c5c(F)cccc5F)c4)cc23)C[C@H]1C` [Example 53, N-(5-(4-((2S,5R)-4-acryloyl-2,5-dimethylpiperazin-1-yl)quinazolin-6-yl)-2-methoxypyridin-3-yl)-2,6-difluorobenzene-sulfonamide], the values for the half-inhibitory concentration (IC50) (on PI3Kα (Table 2); in experiment [1] (setting [2])) were 4.4 nM and 520 nM, respectively.

With `COc1ncc(-c2ccc3ncnc(N4CCC5(CC4)CN(C(=O)/C=C/C(C)=O)C5)c3c2)cc1NS(=O)(=O)c1c(F)cncc1F` [Example 163, (E)-3,5-difluoro-N-(2-methoxy-5-(4-(2-(4-oxopent-2-enoyl)-2,7-diazaspiro[3.5]nonan-7-yl)quinazolin-6-yl)pyridin-3-yl)pyridine-4-sulfonamide], the IC50 on PI3Kα (Table 4) came to 0.25 nM; in experiment [1] (setting [2]) it was 190 nM.
